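These data come from cells grown in 96-well plates and exposed to compound for 48 hours at five concentrations. TGI denotes the concentration required for complete inhibition of growth.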
Key:
Test in all cases: NCI-60 cell line screen, 48 h
SNB-75 CNS = system: SNB-75 CNS
HOP-62 NSCLC = system: HOP-62 NSCLC
RXF 393 renal = system: RXF 393 renal
SK-MEL-28 melanoma = system: SK-MEL-28 melanoma
SK-MEL-5 melanoma = system: SK-MEL-5 melanoma
A498 renal = system: A498 renal
U251 CNS = system: U251 CNS
BT-549 breast = system: BT-549 breast
HT29 colon = system: HT29 colon
COLO 205 colon = system: COLO 205 colon
MDA-MB-435 = system: MDA-MB-435
OVCAR-3 ovarian = system: OVCAR-3 ovarian
MDA-MB-231 breast = system: MDA-MB-231 breast
HCC-2998 colon = system: HCC-2998 colon
SF-539 CNS = system: SF-539 CNS
HL-60(TB) leukemia = system: HL-60(TB) leukemia
DU-145 prostate = system: DU-145 prostate
SK-OV-3 ovarian = system: SK-OV-3 ovarian
HCT-15 colon = system: HCT-15 colon
UACC-257 melanoma = system: UACC-257 melanoma
SN12C renal = system: SN12C renal
HOP-92 NSCLC = system: HOP-92 NSCLC
OVCAR-4 ovarian = system: OVCAR-4 ovarian
MALME-3M melanoma = system: MALME-3M melanoma
SK-MEL-2 melanoma = system: SK-MEL-2 melanoma
SF-268 CNS = system: SF-268 CNS
OVCAR-8 ovarian = system: OVCAR-8 ovarian
KM12 colon = system: KM12 colon
SW-620 colon = system: SW-620 colon
HCT-116 colon = system: HCT-116 colon
MOLT-4 leukemia = system: MOLT-4 leukemia
MDA-N = system: MDA-N
CCRF-CEM leukemia = system: CCRF-CEM leukemia
LOX IMVI melanoma = system: LOX IMVI melanoma
UACC-62 melanoma = system: UACC-62 melanoma
IGROV1 ovarian = system: IGROV1 ovarian
EKVX NSCLC = system: EKVX NSCLC
RPMI-8226 leukemia = system: RPMI-8226 leukemia
NCI-H460 lung = system: NCI-H460 lung
M14 melanoma = system: M14 melanoma
NCI-H23 lung = system: NCI-H23 lung
OVCAR-5 ovarian = system: OVCAR-5 ovarian
SNB-19 CNS = system: SNB-19 CNS
K-562 leukemia = system: K-562 leukemia
SR leukemia = system: SR leukemia
HS 578T breast = system: HS 578T breast
NCI/ADR-RES ovarian = system: NCI/ADR-RES ovarian
T-47D breast = system: T-47D breast
NCI-H226 lung = system: NCI-H226 lung
ACHN renal = system: ACHN renal
A549 NSCLC = system: A549 NSCLC
CAKI-1 renal = system: CAKI-1 renal
786-0 renal = system: 786-0 renal
UO-31 renal = system: UO-31 renal
NCI-H522 lung = system: NCI-H522 lung
TK-10 renal = system: TK-10 renal
SF-295 CNS = system: SF-295 CNS
PC-3 prostate = system: PC-3 prostate
MCF7 breast = system: MCF7 breast

CCN(CC)c1ccc2cc(C(=O)Nc3ccccn3)c(=N)oc2c1
TGI (SNB-75 CNS): > 100 µM
TGI (HOP-62 NSCLC): 52.1 µM
TGI (RXF 393 renal): > 100 µM
TGI (SK-MEL-28 melanoma): > 100 µM
TGI (SK-MEL-5 melanoma): > 100 µM
TGI (A498 renal): > 100 µM
TGI (U251 CNS): > 100 µM
TGI (BT-549 breast): > 100 µM
TGI (HT29 colon): > 100 µM
TGI (COLO 205 colon): > 100 µM
TGI (MDA-MB-435): > 100 µM
TGI (OVCAR-3 ovarian): > 100 µM
TGI (MDA-MB-231 breast): > 100 µM
TGI (HCC-2998 colon): > 100 µM
TGI (SF-539 CNS): > 100 µM
TGI (HL-60(TB) leukemia): > 100 µM
TGI (DU-145 prostate): > 100 µM
TGI (SK-OV-3 ovarian): > 100 µM
TGI (HCT-15 colon): > 100 µM
TGI (UACC-257 melanoma): > 100 µM
TGI (SN12C renal): > 100 µM
TGI (HOP-92 NSCLC): > 100 µM
TGI (OVCAR-4 ovarian): > 100 µM
TGI (MALME-3M melanoma): > 100 µM
TGI (SK-MEL-2 melanoma): 95.7 µM
TGI (SF-268 CNS): > 100 µM
TGI (OVCAR-8 ovarian): > 100 µM
TGI (KM12 colon): > 100 µM
TGI (SW-620 colon): > 100 µM
TGI (HCT-116 colon): > 100 µM
TGI (MOLT-4 leukemia): > 100 µM
TGI (MDA-N): > 100 µM
TGI (CCRF-CEM leukemia): > 100 µM
TGI (LOX IMVI melanoma): > 100 µM
TGI (UACC-62 melanoma): > 100 µM
TGI (IGROV1 ovarian): > 100 µM
TGI (EKVX NSCLC): > 100 µM
TGI (RPMI-8226 leukemia): > 100 µM
TGI (NCI-H460 lung): > 100 µM
TGI (M14 melanoma): > 100 µM
TGI (NCI-H23 lung): > 100 µM
TGI (OVCAR-5 ovarian): > 100 µM
TGI (SNB-19 CNS): 76.2 µM
TGI (K-562 leukemia): > 100 µM
TGI (SR leukemia): > 100 µM
TGI (HS 578T breast): 88.5 µM
TGI (NCI/ADR-RES ovarian): > 100 µM
TGI (T-47D breast): > 100 µM
TGI (NCI-H226 lung): > 100 µM
TGI (ACHN renal): > 100 µM
TGI (A549 NSCLC): > 100 µM
TGI (CAKI-1 renal): > 100 µM
TGI (786-0 renal): > 100 µM

CCCC(CCN)(CCN)[N+](=O)[O-]
TGI (UO-31 renal): > 100 µM
TGI (SNB-75 CNS): > 100 µM
TGI (RXF 393 renal): > 100 µM
TGI (SK-MEL-5 melanoma): > 100 µM
TGI (A498 renal): > 100 µM
TGI (U251 CNS): > 100 µM
TGI (BT-549 breast): > 100 µM
TGI (HT29 colon): > 100 µM
TGI (COLO 205 colon): > 100 µM
TGI (MDA-MB-435): > 100 µM
TGI (MDA-MB-231 breast): > 100 µM
TGI (SF-539 CNS): > 100 µM
TGI (HL-60(TB) leukemia): > 100 µM
TGI (DU-145 prostate): > 100 µM
TGI (SK-OV-3 ovarian): > 100 µM
TGI (HCT-15 colon): > 100 µM
TGI (UACC-257 melanoma): > 100 µM
TGI (SN12C renal): > 100 µM
TGI (OVCAR-4 ovarian): > 100 µM
TGI (MALME-3M melanoma): > 100 µM
TGI (SK-MEL-2 melanoma): > 100 µM
TGI (SF-268 CNS): > 100 µM
TGI (OVCAR-8 ovarian): > 100 µM
TGI (NCI-H522 lung): > 100 µM
TGI (KM12 colon): > 100 µM
TGI (SW-620 colon): > 100 µM
TGI (HCT-116 colon): > 100 µM
TGI (MOLT-4 leukemia): > 100 µM
TGI (MDA-N): > 100 µM
TGI (CCRF-CEM leukemia): > 100 µM
TGI (UACC-62 melanoma): > 100 µM
TGI (IGROV1 ovarian): > 100 µM
TGI (EKVX NSCLC): > 100 µM
TGI (RPMI-8226 leukemia): > 100 µM
TGI (NCI-H460 lung): > 100 µM
TGI (M14 melanoma): > 100 µM
TGI (NCI-H23 lung): > 100 µM
TGI (OVCAR-5 ovarian): > 100 µM
TGI (TK-10 renal): > 100 µM
TGI (SNB-19 CNS): > 100 µM
TGI (K-562 leukemia): > 100 µM
TGI (SR leukemia): > 100 µM
TGI (HS 578T breast): > 100 µM
TGI (NCI/ADR-RES ovarian): > 100 µM
TGI (SF-295 CNS): > 100 µM
TGI (T-47D breast): > 100 µM
TGI (NCI-H226 lung): > 100 µM
TGI (ACHN renal): > 100 µM
TGI (A549 NSCLC): > 100 µM
TGI (CAKI-1 renal): > 100 µM
TGI (786-0 renal): > 100 µM
TGI (PC-3 prostate): > 100 µM

CN(C)CCNC(=O)c1cccc2c1Oc1c(cccc1[N+](=O)[O-])O2
TGI (SNB-75 CNS): 3.96 µM
TGI (MCF7 breast): > 100 µM
TGI (HOP-62 NSCLC): 2.48 µM
TGI (RXF 393 renal): 4.94 µM
TGI (SK-MEL-28 melanoma): 7.87 µM
TGI (SK-MEL-5 melanoma): 3.24 µM
TGI (A498 renal): 4.78 µM
TGI (U251 CNS): 10.4 µM
TGI (BT-549 breast): 4.66 µM
TGI (HT29 colon): 5.78 µM
TGI (COLO 205 colon): 4.28 µM
TGI (MDA-MB-435): 14.4 µM
TGI (OVCAR-3 ovarian): 13.1 µM
TGI (HCC-2998 colon): 2.62 µM
TGI (SF-539 CNS): 4.85 µM
TGI (HL-60(TB) leukemia): > 100 µM
TGI (DU-145 prostate): 5.37 µM
TGI (HCT-15 colon): 3.89 µM
TGI (UACC-257 melanoma): 6.34 µM
TGI (SN12C renal): 3.72 µM
TGI (OVCAR-4 ovarian): > 100 µM
TGI (MALME-3M melanoma): 3.88 µM
TGI (SK-MEL-2 melanoma): 3.06 µM
TGI (SF-268 CNS): 12.2 µM
TGI (OVCAR-8 ovarian): 16.5 µM
TGI (NCI-H522 lung): 3.22 µM
TGI (KM12 colon): 3.46 µM
TGI (SW-620 colon): 10.2 µM
TGI (HCT-116 colon): 3.4 µM
TGI (MOLT-4 leukemia): 2.27 µM
TGI (MDA-N): 12.6 µM
TGI (CCRF-CEM leukemia): 16.4 µM
TGI (LOX IMVI melanoma): 10.5 µM
TGI (UACC-62 melanoma): 1.77 µM
TGI (IGROV1 ovarian): 8.9 µM
TGI (EKVX NSCLC): 14.3 µM
TGI (RPMI-8226 leukemia): > 100 µM
TGI (NCI-H460 lung): 2.66 µM
TGI (M14 melanoma): 16.2 µM
TGI (NCI-H23 lung): 9.58 µM
TGI (OVCAR-5 ovarian): 8.14 µM
TGI (TK-10 renal): 6.08 µM
TGI (K-562 leukemia): 7.55 µM
TGI (SR leukemia): 15.6 µM
TGI (HS 578T breast): 6.71 µM
TGI (SF-295 CNS): 5.09 µM
TGI (T-47D breast): 1.93 µM
TGI (NCI-H226 lung): 0.92 µM
TGI (A549 NSCLC): 3.42 µM
TGI (CAKI-1 renal): 1.16 µM
TGI (786-0 renal): 3.98 µM
TGI (PC-3 prostate): 12.5 µM

CCc1ccccc1NNc1cc(=O)[nH]c(=O)[nH]1
TGI (UO-31 renal): 31.1 µM
TGI (SNB-75 CNS): 40.5 µM
TGI (MCF7 breast): 39.1 µM
TGI (HOP-62 NSCLC): 35.1 µM
TGI (RXF 393 renal): 40.1 µM
TGI (SK-MEL-28 melanoma): 38 µM
TGI (SK-MEL-5 melanoma): 32.4 µM
TGI (A498 renal): 45.8 µM
TGI (U251 CNS): 31.2 µM
TGI (BT-549 breast): 41.4 µM
TGI (HT29 colon): 39.3 µM
TGI (COLO 205 colon): 34.5 µM
TGI (MDA-MB-435): 34.1 µM
TGI (OVCAR-3 ovarian): 30.8 µM
TGI (MDA-MB-231 breast): 32.3 µM
TGI (HCC-2998 colon): 40.1 µM
TGI (SF-539 CNS): 52.2 µM
TGI (HL-60(TB) leukemia): > 100 µM
TGI (DU-145 prostate): > 100 µM
TGI (SK-OV-3 ovarian): 64.8 µM
TGI (UACC-257 melanoma): 35.9 µM
TGI (SN12C renal): 39 µM
TGI (HOP-92 NSCLC): 31.3 µM
TGI (OVCAR-4 ovarian): 38 µM
TGI (SK-MEL-2 melanoma): 56.2 µM
TGI (OVCAR-8 ovarian): 51.6 µM
TGI (KM12 colon): 36 µM
TGI (SW-620 colon): 37.3 µM
TGI (HCT-116 colon): 31.1 µM
TGI (MOLT-4 leukemia): 85.7 µM
TGI (MDA-N): 33.6 µM
TGI (CCRF-CEM leukemia): 82.8 µM
TGI (LOX IMVI melanoma): 29.4 µM
TGI (UACC-62 melanoma): 35.9 µM
TGI (IGROV1 ovarian): 37.8 µM
TGI (EKVX NSCLC): 33.9 µM
TGI (RPMI-8226 leukemia): > 100 µM
TGI (NCI-H460 lung): 52.6 µM
TGI (M14 melanoma): 35.1 µM
TGI (NCI-H23 lung): > 100 µM
TGI (OVCAR-5 ovarian): 37.3 µM
TGI (SNB-19 CNS): 43.5 µM
TGI (K-562 leukemia): > 100 µM
TGI (SR leukemia): > 100 µM
TGI (HS 578T breast): 68.6 µM
TGI (NCI/ADR-RES ovarian): > 100 µM
TGI (SF-295 CNS): 36.2 µM
TGI (T-47D breast): 37.7 µM
TGI (NCI-H226 lung): 35 µM
TGI (ACHN renal): 32.7 µM
TGI (A549 NSCLC): 57.3 µM
TGI (CAKI-1 renal): 21.5 µM
TGI (786-0 renal): 32.5 µM
TGI (PC-3 prostate): 32.8 µM
